From US6780875B2, “Quinoline-4-carboxamide derivatives as NK-3 and NK-2 receptor antagonists” (SmithKline Beecham S.p.A., priority 1998, dated 2004)
Structures can show the parent of a compound that is named as a salt.

Row | melting point | Compound
1 | 178 to 210 °C | C[C@H](NC(=O)c1c(CN2CCN(C(=O)Cc3c[nH]cn3)CC2)c(-c2ccccc2)nc2ccccc12)C1CCCCC1
2 | 162 to 163 °C | C[C@H](NC(=O)c1c(CN2CCN(C(=O)CN3CCN(C)CC3)CC2)c(-c2ccccc2)nc2ccccc12)C1CCCCC1 [Example 48, 3-{4-[2-(4-Methyl-piperazin-1-yl)-ethanoyl]-piperazin-1-ylmethyl}-2-phenyl-quinoline-4-carboxylic acid ((S)-1-cyclohexyl-ethyl)-amide]
3 | 98 to 102 °C | CC[C@H](NC(=O)c1c(CN2CCC(N)CC2)c(-c2ccccc2)nc2ccccc12)c1ccccc1 [Example 55, 3-(4-Amino-piperidin-1-ylmethyl)-2-phenyl-quinoline-4-carboxylic acid ((S)-1-phenyl-propyl)-amide]
4 | 195 to 197 °C | CC[C@H](NC(=O)c1c(CN2CCC(n3c(=O)[nH]c4ccccc43)CC2)c(-c2ccccc2)nc2ccccc12)c1ccccc1
5 | 135 to 137 °C | C[C@H](NC(=O)c1c(CN2CCC(N3CCOCC3)CC2)c(-c2ccccc2)nc2ccccc12)C1CCCCC1 [Example 42, 3-(4-Morpholin-4-yl-piperidin-1-ylmethyl)-2-phenyl-quinoline-4-carboxylic acid ((S)-1-cyclohexyl-ethyl)-amide]
6 | 208 to 209 °C | C[C@H](NC(=O)c1c(CN2CCN(C(=O)CCC(=O)O)CC2)c(-c2ccccc2)nc2ccccc12)C1CCCCC1 [Example 83, 4-{4-[4-((S)-1-Cyclohexyl-ethylcarbamoyl)-2-phenyl-quinolin-3-ylmethyl]-piperazin-1-yl}-4-oxo-butyric acid]
7 | 129 to 131 °C | CC[C@H](NC(=O)c1c(CN2CCC3(CC2)CNC(=O)C3)c(-c2ccccc2)nc2ccccc12)c1ccccc1 [Example 63, 3-(3-Oxo-2,8-diaza-spiro[4.5]dec-8-ylmethyl)-2-phenyl-quinoline-4-carboxylic acid ((S)-1-phenyl-propyl)-amide]
8 | 150 to 152 °C | C[C@H](NC(=O)c1c(CN2CCN(C(=O)c3ccccc3)CC2)c(-c2ccccc2)nc2ccccc12)C1CCCCC1 [Example 24, 2-Phenyl-3-[4-(1-phenyl-methanoyl)-piperazin-1-ylmethyl]-quinoline-4-carboxylic acid ((S)-1-cyclohexyl-ethyl)-amide]
9 | 180 to 184 °C | C[C@H](NC(=O)c1c(CN2CCC(N3CCCCC3)CC2)c(-c2ccccc2)nc2ccccc12)C1CCCCC1 (as salt: hydrochloride) [Example 13, 3-[1,4′]Bipiperidinyl-1′-ylmethyl-2-phenyl-quinoline-4-carboxylic acid ((S)-1-cyclohexyl-ethyl)-amide]
10 | 150 to 160 °C | C[C@H](NC(=O)c1c(CN2CCC(N3CCC(O)CC3)CC2)c(-c2ccccc2)nc2ccccc12)C1CCCCC1 [Example 43, 3-(4-Hydroxy-[1,4′]bipiperidinyl-1′-ylmethyl)-2-phenyl-quinoline-4-carboxylic acid ((S)-1-cyclohexyl-ethyl)-amide]
11 | 154 to 155 °C | C[C@H](NC(=O)c1c(CN2CCN(C(=NC#N)N3CCCC3)CC2)c(-c2ccccc2)nc2ccccc12)C1CCCCC1 [Example 76, 3-[4-(1-Cyanoimino-1-pyrrolidin-1-yl-methyl)-piperazin-1-ylmethyl]-2-phenyl-quinoline-4-carboxylic acid ((S)-1-cyclohexyl-ethyl)-amide]
12 | 149 to 151 °C | CC(C)C(=O)N1CCN(Cc2c(-c3ccccc3)nc3ccccc3c2C(=O)N[C@@H](C)C2CCCCC2)CC1 [Example 25, 3-[4-(2-Methyl-propanoyl)-piperazin-1-ylmethyl]-2-phenyl-quinoline-4-carboxylic acid ((S)-1-cyclohexyl-ethyl)-amide]
13 | 158 to 162 °C | CC[C@H](NC(=O)c1c(CN2CCC(N3CCCCC3)CC2)c(-c2ccccc2)nc2cc(O)ccc12)c1ccccc1 [Example 95, 3-[1,4′]Bipiperidinyl-1′-ylmethyl-7-hydroxy-2-phenyl-quinoline-4-carboxylic acid ((S)-1-phenyl-propyl)-amide]
14 | 240 to 242 °C | CC[C@H](NC(=O)c1c(CN2CCC(N3CCNC3=O)CC2)c(-c2ccccc2)nc2ccccc12)c1ccccc1 [Example 77, 3-[4-(2-Oxo-imidazolidin-1-yl)-piperidin-1-ylmethyl]-2-phenyl-quinoline-4-carboxylic acid ((S)-1-phenyl-propyl)-amide]
15 | 156 to 160 °C | CC[C@H](NC(=O)c1c(CN2CCC(N3CCCCC3)CC2)c(-c2ccccc2)nc2c(Br)c(OC)ccc12)c1ccccc1 [Example 66, 3-[1,4′]Bipiperidinyl-1′-ylmethyl-8-bromo-7-methoxy-2-phenyl-quinoline-4-carboxylic acid ((S)-1-phenyl-propyl)-amide]
16 | 209 to 211 °C | C[C@H](NC(=O)c1c(CN2CCN(C(=O)c3ccccc3C(=O)O)CC2)c(-c2ccccc2)nc2ccccc12)C1CCCCC1 [Example 87, 2-(1-{4-[4-((S)-1-Cyclohexyl-ethylcarbamoyl)-2-phenyl-quinolin-3-ylmethyl]-piperazin-1-yl}-methanoyl)-benzoic acid]
17 | 158 to 160 °C | CC[C@H](NC(=O)c1c(CN2CCN(CCOCCO)CC2)c(-c2ccccc2)nc2ccccc12)c1ccccc1 [Example 15, 3-{4-[2-(2-Hydroxy-ethoxy)-ethyl]-piperazin-1-ylmethyl}-2-phenyl-quinoline-4-carboxylic acid ((S)-1-phenyl-propyl)-amide]
18 | 242 to 245 °C | CC[C@H](NC(=O)c1c(CN2CCC3(CC2)C(=O)NCN3c2ccccc2)c(-c2ccccc2)nc2ccccc12)c1ccccc1
19 | 209 to 216 °C (dec.) | CC[C@H](NC(=O)c1c(CN2CCC(N3CCCCC3)CC2)c(-c2ccccc2)nc2c(Cl)c(O)ccc12)c1ccccc1 [Example 89, 3-[1,4′]Bipiperidinyl-1′-ylmethyl-8-chloro-7-hydroxy-2-phenyl-quinoline-4-carboxylic acid ((S)-1-phenyl-propyl)-amide]
20 | 95 to 105 °C | C[C@H](NC(=O)c1c(CN2CCN(CCO)CC2)c(-c2ccccc2)nc2ccccc12)C1CCCCC1 [Example 29, 3-[4-(2-Hydroxy-ethyl)-piperazin-1-ylmethyl]-2-phenyl-quinoline-4-carboxylic acid ((S)-1-cyclohexyl-ethyl)-amide]
21 | 157 to 165 °C | CC[C@H](NC(=O)c1c(CN2CCC(N3CCOCC3)CC2)c(-c2ccccc2)nc2ccccc12)c1ccccc1 [Example 19, 3-(4-Morpholin-4-yl-piperidin-1-ylmethyl)-2-phenyl-quinoline-4-carboxylic acid ((S)-1-phenyl-propyl)-amide]
22 | 100 °C (dec.) | CC[C@H](NC(=O)c1c(C(c2ccccc2)(N2CCCCC2)N(C)C(C)=O)c(-c2ccccc2)nc2ccccc12)c1ccccc1 (stereo partly drawn) [Example 11, 3-[(Acetyl-methyl-amino)-phenyl-piperidin-1-ylmethyl]-2-phenyl-quinoline-4-carboxylic acid ((S)-1-phenyl-propyl)-amide]
23 | 180 to 182 °C | CC[C@H](NC(=O)c1c(CN2CCN(C(=O)c3ccccc3)CC2)c(-c2ccccc2)nc2ccccc12)c1ccccc1 [Example 31, 2-Phenyl-3-[4-(1-phenyl-methanoyl)-piperazin-1-ylmethyl]-quinoline-4-carboxylic acid ((S)-1-phenyl-propyl)-amide]
